Source: patent US10689343B2, “Inhibitors of tryptophan 2,3-dioxygenase” (NETHERLANDS TRANSLATIONAL RESEARCH CENTER B.V., priority 2016, dated 2020)
Where “and” joins values, the source holds several entries; their conditions need not be identical. Equal entries are not always repeated.

Legend:
Recombinant TDO = biological target: T1, Recombinant TDO (Homo sapiens, UniProt P48775); assay: Biochemical assay for TDO (NFK GreenScreen); conditions: 50 nM TDO, 200 μM L-tryptophan
T1 construct: Recombinant TDO (Seegers, N., et al.) and all other assay components were diluted in TDO reaction buffer
T1 sequence (P48775 whole entry): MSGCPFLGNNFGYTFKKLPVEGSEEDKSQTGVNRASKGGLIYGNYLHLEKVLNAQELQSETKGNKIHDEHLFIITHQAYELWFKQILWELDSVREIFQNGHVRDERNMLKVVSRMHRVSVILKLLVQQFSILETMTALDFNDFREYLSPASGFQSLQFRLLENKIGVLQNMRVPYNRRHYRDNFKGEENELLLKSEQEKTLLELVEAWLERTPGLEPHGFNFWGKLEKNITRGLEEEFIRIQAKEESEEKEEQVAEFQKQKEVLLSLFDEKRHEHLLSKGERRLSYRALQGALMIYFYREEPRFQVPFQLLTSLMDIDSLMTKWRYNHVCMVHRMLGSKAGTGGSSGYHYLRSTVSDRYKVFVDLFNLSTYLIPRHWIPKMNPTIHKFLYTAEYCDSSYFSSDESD
Description: Biochemical Assay for TDO
The NFK GreenScreen™ assay technology was also used to determine the inhibitory activity of compounds on TDO (Seegers, N., et al., J. Biol. Screen. 19: 1266; 2014). Compounds were serially diluted in DMSO and finally in TDO reaction buffer, consisting of 100 mM NaH2PO4, pH 7.0, supplemented with 0.02% Tween-20 (cat. No. P7949; Sigma Aldrich). Recombinant TDO (Seegers, N., et al.) and all other assay components were diluted in TDO reaction buffer. 10 μl of compound solution and 20 μl of enzyme solution supplemented with 200 μM ascorbic acid were combined in the well of a black 384-well plate (cat. no. 3573; Corning, Corning, N.Y., USA), and incubated for 60 min at room temperature. Subsequently, 10 μl of 0.8 mM of the substrate L-tryptophan was added, i.e., the final concentration of L-tryptophan was 200 μM. The DMSO concentration in the assay was 0.3%. The concentration of TDO was 50 nM. Incubation was continued for 15 min at room temperature. Then, 10 μl of NFK Green™ (NTRC, Oss, The Netherlands) was added, the plate was sealed, and the reaction was developed for 3 hours at 37° C. To determine the production of N-formyl kynurenine (NFK), the seal was removed and fluorescence was read on an EnVision multimode reader (Perkin Elmer, Waltham, Mass., USA). IC50 were calculated using XLfit™ software (ID Business Solutions, Ltd., Surrey, U.K.).

[1] = biological target: T2, TDO in SW48 colorectal carcinoma cells (Homo sapiens, UniProt P48775); assay: Cell-based assay for TDO in SW48 colorectal carcinoma cells (NFK GreenScreen); conditions: 18 hours with L-tryptophan, read-out: IC50 on TDO in cells
T2 construct: Endogenous expression of TDO has been determined in a variety of cancer cell lines; host or cells: SW48 colorectal carcinoma cells
T2 sequence (P48775 whole entry): as above
Description: The biological activity of TDO inhibitors can be measured by applying above detection methods to cells that are treated with test compound. Endogenous expression of TDO has been determined in a variety of cancer cell lines (Pilotte et al.; Seegers, et al.), or TDO can be expressed in cells that lack endogenous TDO by transfection of an expression vector containing TDO cDNA. […] A preferred assay is the cell-based NFK GreenScreen™ assay (Seegers et al, supra), which measures the cellular inhibitory activity of compounds on TDO. […] No. V9920). Cell-Based Assay for TDO The NFK GreenScreen™ assay technology was also used to determine the inhibitory activity of compounds on TDO in SW48 colorectal carcinoma cells (Seegers, N., et al., J. Biol. Screen. 19: 1266; 2014). […] Compounds were dissolved in DMSO and diluted in RPMI 1640. Final DMSO concentration in the assay was 0.4% (v/v). Eight thousand cells per well in 40 μl were seeded in a black 384-well tissue plate (cat. No. 781086; […] To determine NFK levels, 12 μl NFK Green™ (NTRC, Oss, The Netherlands) was added to each well, and the plate was sealed and incubated for 4 hours at 37° C. Fluorescence was measured on an EnVision multimode reader (Perkin Elmer, Waltham, Mass., USA).

CYP3A4 = CYP3A4 (Homo sapiens, UniProt P08684); assay: P450-Glo CYP3A4 luciferin isopropylacetal (Luc-IP) assay
Chain of CYP3A4 (P08684 whole entry): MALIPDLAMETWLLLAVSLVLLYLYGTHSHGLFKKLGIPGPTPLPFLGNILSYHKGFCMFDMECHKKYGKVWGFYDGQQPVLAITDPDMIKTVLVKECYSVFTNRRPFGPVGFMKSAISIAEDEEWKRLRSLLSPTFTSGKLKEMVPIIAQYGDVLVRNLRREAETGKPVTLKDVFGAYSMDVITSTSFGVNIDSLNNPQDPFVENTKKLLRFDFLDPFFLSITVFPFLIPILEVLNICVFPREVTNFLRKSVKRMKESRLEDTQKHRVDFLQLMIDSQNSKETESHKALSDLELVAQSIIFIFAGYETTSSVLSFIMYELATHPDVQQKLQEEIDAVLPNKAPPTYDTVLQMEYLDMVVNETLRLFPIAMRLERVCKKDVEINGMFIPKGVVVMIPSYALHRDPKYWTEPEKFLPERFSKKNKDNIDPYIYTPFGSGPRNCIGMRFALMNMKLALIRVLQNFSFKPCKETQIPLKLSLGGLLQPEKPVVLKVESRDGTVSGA

CYP2D6 = CYP2D6 (Homo sapiens, UniProt P10635); assay: P450-Glo CYP2D6 Luc-IP assay
Chain of CYP2D6 (P10635 whole entry): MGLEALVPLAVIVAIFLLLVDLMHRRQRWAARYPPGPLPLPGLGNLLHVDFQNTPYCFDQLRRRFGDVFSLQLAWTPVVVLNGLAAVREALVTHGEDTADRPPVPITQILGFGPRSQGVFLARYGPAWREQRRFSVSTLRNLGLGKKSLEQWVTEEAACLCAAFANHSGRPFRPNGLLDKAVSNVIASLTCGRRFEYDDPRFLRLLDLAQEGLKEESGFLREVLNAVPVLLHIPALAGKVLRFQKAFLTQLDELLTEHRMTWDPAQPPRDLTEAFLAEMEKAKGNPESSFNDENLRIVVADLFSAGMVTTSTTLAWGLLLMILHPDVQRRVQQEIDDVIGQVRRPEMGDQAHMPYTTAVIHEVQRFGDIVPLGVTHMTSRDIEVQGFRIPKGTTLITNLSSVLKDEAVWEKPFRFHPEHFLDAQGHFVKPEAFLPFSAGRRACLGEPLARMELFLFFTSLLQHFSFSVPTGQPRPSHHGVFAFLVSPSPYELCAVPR

SMILES	IC50 (Recombinant TDO) [nM]	IC50 [1]	IC50 (CYP3A4) [nM]	IC50 (CYP2D6) [nM]
CO[C@H]1CNCC[C@H]1NC(=O)c1ccc(-c2c[nH]c3cc(F)ccc23)cc1 [Example 43, 4-(6-Fluoro-1H-indol-3-yl)-N-[(3S,4R)-3-methoxy-4-piperidyl]benzamide]	< 1000	≤ 500 nM and 200 to 500 nM	5000 to 10000	> 10000
O=C(NC1CCOCC1)c1ccc(-c2c[nH]c3cc(F)ccc23)cc1 [Example 44, 4-(6-Fluoro-1H-indol-3-yl)-N-tetrahydropyran-4-yl-benzamide]	< 1000	≤ 500 nM and 200 to 500 nM	> 10000	> 10000
C[C@H](NC(=O)c1ccc(-c2c[nH]c3cc(F)ccc23)cc1)c1nnc2ccccn12 [Example 45, 4-(6-Fluoro-1H-indol-3-yl)-N-[(1S)-1-([1,2,4]triazolo[4,3-a]pyridin-3-yl)ethyl]benzamide]	1000 to 5000	≤ 500 nM and 200 to 500 nM	5000 to 10000	> 10000
O=C(NCCN1CCCCC1)c1ccc(-c2c[nH]c3cc(F)ccc23)cc1 [Example 46, 4-(6-Fluoro-1H-indol-3-yl)-N-[2-(1-piperidyl)ethyl]benzamide]	< 1000	≤ 500 nM and 200 to 500 nM	5000 to 10000	> 10000
CN1C2CCC1CC(NC(=O)c1ccc(-c3c[nH]c4cc(F)ccc34)cc1)C2 (stereo not shown) [Example 47, 4-(6-Fluoro-1H-indol-3-yl)-N-(8-methyl-8-azabicyclo[3.2.1]octan-3-yl)benzamide]	< 1000	≤ 500 nM and 200 to 500 nM	> 10000	> 10000
CC(CO)(CO)NC(=O)c1ccc(-c2c[nH]c3cc(F)ccc23)cc1 [Example 48, 4-(6-Fluoro-1H-indol-3-yl)-N-[2-hydroxy-1-(hydroxymethyl)-1-methyl-ethyl]benzamide]	< 1000	≤ 500 nM and 200 to 500 nM	> 10000	> 10000
CC(C)[C@H](C)NC(=O)c1ccc(-c2c[nH]c3cc(F)ccc23)cc1 [Example 49, N-[(1S)-1,2-dimethylpropyl]-4-(6-fluoro-1H-indol-3-yl)benzamide]	< 1000	≤ 500 nM and 200 to 500 nM	> 10000	> 10000
O=C(N[C@@H]1CCCC[C@H]1O)c1ccc(-c2c[nH]c3cc(F)ccc23)cc1 [Example 50, 4-(6-Fluoro-1H-indol-3-yl)-N-[(1R,2R)-2-hydroxycyclohexyl]benzamide]	< 1000	≤ 500 nM and 200 to 500 nM	> 10000	> 10000
C[C@H](CO)NC(=O)c1ccc(-c2c[nH]c3cc(F)ccc23)cc1Cl [Example 51, 2-Chloro-4-(6-fluoro-1H-indol-3-yl)-N-[(1R)-2-hydroxy-1-methyl-ethyl]benzamide]	< 1000	≤ 500 nM and 200 to 500 nM	> 10000	> 10000
CN(C)CCCNC(=O)c1ccc(-c2c[nH]c3cc(F)ccc23)cc1Cl [Example 52, 2-Chloro-N-[3-(dimethylamino)propyl]-4-(6-fluoro-1H-indol-3-yl)benzamide]	< 1000	≤ 200 nM	> 10000	> 10000
O=C(NCC(F)(F)F)c1ccc(-c2c[nH]c3cc(F)ccc23)cc1Cl [Example 53, 2-Chloro-4-(6-fluoro-1H-indol-3-yl)-N-(2,2,2-trifluoroethyl)benzamide]	< 1000	≤ 500 nM and 200 to 500 nM	> 10000	> 10000
C[C@@H](CO)NC(=O)c1ccc(-c2c[nH]c3cc(F)ccc23)cc1Cl [Example 54, 2-Chloro-4-(6-fluoro-1H-indol-3-yl)-N-[(1S)-2-hydroxy-1-methyl-ethyl]benzamide]	< 1000	≤ 200 nM	> 10000	> 10000
O=C(N[C@H]1CCCNC1)c1ccc(-c2c[nH]c3cc(F)ccc23)cc1Cl [Example 55, 2-Chloro-4-(6-fluoro-1H-indol-3-yl)-N-[(3S)-3-piperidyl]benzamide]	< 1000	≤ 200 nM	5000 to 10000	> 10000
C[C@H](CO)NC(=O)c1c(F)cc(-c2c[nH]c3cc(F)ccc23)cc1F [Example 56, 2,6-Difluoro-4-(6-fluoro-1H-indol-3-yl)-N-[(1R)-2-hydroxy-1-methyl-ethyl]benzamide]	< 1000	≤ 500 nM and 200 to 500 nM	> 10000	> 10000
O=C(NCC(F)(F)F)c1c(F)cc(-c2c[nH]c3cc(F)ccc23)cc1F [Example 57, 2,6-Difluoro-4-(6-fluoro-1H-indol-3-yl)-N-(2,2,2-trifluoroethyl)benzamide]	< 1000	≤ 500 nM and 200 to 500 nM	5000 to 10000	5000 to 10000
O=C(N[C@H]1CCCNC1)c1c(F)cc(-c2c[nH]c3cc(F)ccc23)cc1F [Example 58, 2,6-Difluoro-4-(6-fluoro-1H-indol-3-yl)-N-[(3S)-3-piperidyl]benzamide]	< 1000	≤ 200 nM	> 10000	> 10000
CN(C)CCCNC(=O)c1c(F)cc(-c2c[nH]c3cc(F)ccc23)cc1F [Example 59, N-[3-(dimethylamino)propyl]-2,6-difluoro-4-(6-fluoro-1H-indol-3-yl)benzamide]	< 1000	≤ 500 nM and 200 to 500 nM	> 10000	> 10000
C[C@@H](CO)NC(=O)c1c(F)cc(-c2c[nH]c3cc(F)ccc23)cc1F [Example 60, 2,6-Difluoro-4-(6-fluoro-1H-indol-3-yl)-N-[(1S)-2-hydroxy-1-methyl-ethyl]benzamide]	< 1000	≤ 500 nM and 200 to 500 nM	> 10000	> 10000
N[C@H]1CC[C@@H](NC(=O)c2ccc(-c3c[nH]c4cc(F)ccc34)cc2)CC1 [Example 61, N-(cis-4-aminocyclohexyl)-4-(6-fluoro-1H-indol-3-yl)benzamide]	< 1000	≤ 500 nM and 200 to 500 nM	5000 to 10000	> 10000
O=C(NCC1(O)CCC1)c1ccc(-c2c[nH]c3cc(F)ccc23)cc1 [Example 62, 4-(6-Fluoro-1H-indol-3-yl)-N-[(1-hydroxycyclobutyl)methyl]benzamide]	< 1000	≤ 500 nM and 200 to 500 nM	5000 to 10000	> 10000
CN1CCC(O)(CNC(=O)c2ccc(-c3c[nH]c4cc(F)ccc34)cc2)CC1 [Example 63, 4-(6-Fluoro-1H-indol-3-yl)-N-[(4-hydroxy-1-methyl-4-piperidyl)methyl]benzamide]	< 1000	≤ 500 nM and 200 to 500 nM	> 10000	> 10000
O=C(NC1[C@H]2COC[C@@H]12)c1ccc(-c2c[nH]c3cc(F)ccc23)cc1 (stereo partly drawn) [Example 64, 4-(6-Fluoro-1H-indol-3-yl)-N-[(1R,5S)-3-oxabicyclo[3.1.0]hexan-6-yl]benzamide]	< 1000	≤ 500 nM and 200 to 500 nM	> 10000	> 10000
O=C(NOC[C@@H](O)CO)c1ccc(-c2c[nH]c3cc(F)ccc23)cc1 [Example 66, N-[(2S)-2,3-dihydroxypropoxy]-4-(6-fluoro-1H-indol-3-yl)benzamide]	< 1000	≤ 500 nM and 200 to 500 nM	5000 to 10000	> 10000
CN1CCCC(NC(=O)c2ccc(-c3c[nH]c4cc(F)ccc34)cc2Cl)C1 (stereo not shown) [Example 68, 2-Chloro-4-(6-fluoro-1H-indol-3-yl)-N-(1-methyl-3-piperidyl)benzamide]	< 1000	≤ 200 nM	5000 to 10000	> 10000
CN1CCC(NC(=O)c2ccc(-c3c[nH]c4cc(F)ccc34)cc2Cl)CC1 [Example 69, 2-Chloro-4-(6-fluoro-1H-indol-3-yl)-N-(1-methyl-4-piperidyl)benzamide]	< 1000	≤ 200 nM	> 10000	> 10000
